Laboratory results: US20250042916A1 (ACONCAGUA BIO, INC., priority 2023, published 2025)

Molecular target: human calcitonin receptor (CTR) and RAMP3 (AMY3) in COS-7 cells (Homo sapiens, UniProt O60896+P30988)
Experiment: Amylin Receptor cAMP Assay I
Type: cell-based
Conditions: values marked *: Amylin Receptor cAMP Assay I; COS-7/AMY3 cells; read-out: Amylin Receptor cAMP Stimulation Activity: EC50
Excerpt: Amylin Receptor cAMP Assay I
AMYRs are heterodimers of the class B calcitonin (CT) G-protein-coupled receptor (CTR) and receptor activity-modifying proteins (RAMPs). All three RAMPs can interact with the CTR and form AMY1, AMY2, AMY3 with RAMP1, RAMP2 and RAMP3, respectively. Like other class B1 GPCRs, the CT receptor family is canonically coupled to Gs-mediated cAMP production, and measurement of cAMP accumulation has been the primary assay used to determine peptide selectivity and potency.
To optimize functional activity directed toward Gas coupling, COS-7 cells were stably transfected with human calcitonin receptor (CTR) and RAMP3, simultaneously. 100× concentration of compound working solutions were prepared (Agilent Technologies Bravo) with 4-fold serial dilution in 384-well Echo LDV plate (Labcyte, Cat #LP-0200). 100 nL/well 100× concentration of compound working solutions were moved to 384-well white low volume plate (Greiner, Cat #784075) using Labcyte ECHO550. 1×10^5 cells/mL COS-7/CTR or COS-7/AMY3 (HD Biosciences) cell suspensions prepared with assay buffer [DPBS containing 0.5 mM IBMX (Sigma, Cat #15879) and 0.1% BSA (GENVIEW, Cat #FA016-100 g)], 10 μL cell suspensions were added to each well of previous generated assay plate which already contains 100 nL compound at 100× concentration using ThermoFisher Multidrop Combi (1000 cells/well). Seal the plate and incubate at 37° C. with 5% CO2 for 30 min.
After incubation, the cAMP assay signal was generated using cAMP Hi-range Kit (Cisbio). 5 μL cAMP-d2 working solution was added to each well, followed by 5 μL Anti-cAMP antibody-cryptate working solution which was added to each well using ThermoFisher Multidrop Combi. The samples were then incubated at room temperature for 1 hour protected from light. the fluorescence was read at 665 and 615 nm with Reader PerkinElmer EnVision.

Sequence of human calcitonin receptor (CTR) and RAMP3 (AMY3) in COS-7 cells (P30988 25-474): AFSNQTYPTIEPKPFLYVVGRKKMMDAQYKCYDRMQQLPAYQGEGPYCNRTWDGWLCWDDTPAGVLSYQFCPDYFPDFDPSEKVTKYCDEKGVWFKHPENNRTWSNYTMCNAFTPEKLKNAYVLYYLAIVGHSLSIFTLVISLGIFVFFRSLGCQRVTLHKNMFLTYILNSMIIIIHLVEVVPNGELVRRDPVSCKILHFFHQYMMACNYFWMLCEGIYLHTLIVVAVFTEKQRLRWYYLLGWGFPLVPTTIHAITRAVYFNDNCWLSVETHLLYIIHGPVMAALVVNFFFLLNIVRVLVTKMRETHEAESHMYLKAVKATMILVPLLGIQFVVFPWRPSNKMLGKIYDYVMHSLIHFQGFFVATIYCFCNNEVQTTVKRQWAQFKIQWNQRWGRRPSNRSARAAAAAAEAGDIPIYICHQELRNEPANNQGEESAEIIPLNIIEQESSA
Sequence of human calcitonin receptor (CTR) and RAMP3 (AMY3) in COS-7 cells (O60896 24-148): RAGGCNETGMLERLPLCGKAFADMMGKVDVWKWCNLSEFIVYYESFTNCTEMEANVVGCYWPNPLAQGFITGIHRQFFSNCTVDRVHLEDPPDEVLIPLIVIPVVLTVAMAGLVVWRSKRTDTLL

Row | Structure (SMILES) | EC50
1 | Cc1nnc(-c2c(CCc3ccc(F)cc3)nc(CC(C)C)c(C(N)=O)c2-c2cc3ccccc3s2)o1 [Compound 127, 4-(1-benzothiophen-2-yl)-6-[2-(p-fluorophenyl)ethyl]-2-isobutyl-5-(5-methyl-1,3,4-oxadiazol-2-yl)nicotinamide] | 495 nM
2 | Cc1nnc(-c2c(CCc3ccc(F)cc3)nc(CC(C)C)c(C(N)=O)c2-c2ccc(C(=O)NCc3ccc(F)c(F)c3)o2)o1 [Compound 128, N-(3,4-difluorophenyl)methyl-5-{5-carbamoyl-2-[2-(p-fluorophenyl)ethyl]-6-isobutyl-3-(5-methyl-1,3,4-oxadiazol-2-yl)-4-pyridyl}-2-furamide] | 162 nM
3 | Cc1nnc(-c2c(CCc3ccc(F)cc3)nc(CC(C)C)c(C(N)=O)c2-c2cc3cccc(Br)c3s2)o1 [Compound 129, 4-(7-bromo-1-benzothiophen-2-yl)-6-[2-(p-fluorophenyl)ethyl]-2-isobutyl-5-(5-methyl-1,3,4-oxadiazol-2-yl)nicotinamide] | 940 nM
4 | Cc1nnc(-c2c(CCc3ccc(F)cc3)nc(CC(C)C)c(C(N)=O)c2-c2cc3ccnc(NCc4ccc(F)c(F)c4)c3o2)o1 [Compound 130, 4-(7-{[(3,4-difluorophenyl)methyl]amino}-1-oxa-6-aza-2-indenyl)-6-[2-(p-fluorophenyl)ethyl]-2-isobutyl-5-(5-methyl-1,3,4-oxadiazol-2-yl)nicotinamide] | 49 nM
5 | Cc1nnc(-c2c(CCc3ccc(F)cc3)nc(CC(C)C)c(C(N)=O)c2-c2cc3ncnc(NCc4ccc(F)c(F)c4)c3s2)o1 [Compound 132, 4-(4-((3,4-difluorobenzyl)amino)thieno[3,2-d]pyrimidin-6-yl)-6-(4-fluorophenethyl)-2-isobutyl-5-(5-methyl-1,3,4-oxadiazol-2-yl)nicotinamide] | 2.5 nM
6 | Cc1nnc(-c2c(CCc3ccc(F)cc3)nc(CC(C)C)c(C(N)=O)c2-c2cc3c(NCc4ccc(F)c(F)c4)nccc3s2)o1 [Compound 133, 4-(4-((3,4-difluorobenzyl)amino)thieno[3,2-c]pyridin-2-yl)-6-(4-fluorophenethyl)-2-isobutyl-5-(5-methyl-1,3,4-oxadiazol-2-yl)nicotinamide] | 6.9 nM
7 | COCC1CN(c2nccc3cc(-c4c(C(N)=O)c(CC(C)C)nc(CCc5ccc(F)cc5)c4-c4nnc(C)o4)sc23)C1 [Compound 134, 6-(4-fluorophenethyl)-2-isobutyl-4-(7-(3-(methoxymethyl)azetidin-1-yl)thieno[2,3-c]pyridin-2-yl)-5-(5-methyl-1,3,4-oxadiazol-2-yl)nicotinamide] | 1160 nM
8 | Cc1nnc(-c2c(CCc3ccc(F)cc3)nc(CC(C)C)c(C(N)=O)c2-c2cc3cccc(NCc4ccc(F)c(F)c4)c3s2)o1 [Compound 136, 4-(7-((3,4-difluorobenzyl)amino)benzo[b]thiophen-2-yl)-6-(4-fluorophenethyl)-2-isobutyl-5-(5-methyl-1,3,4-oxadiazol-2-yl)nicotinamide] | 6.7 nM
9 | Cc1nnc(-c2c(CCc3ccc(F)cc3)nc(CC(C)C)c(C(N)=O)c2-c2cc3cccc(N[C@@H]4CCc5ccccc54)c3s2)o1 [Compound 137, (R)-4-(7-((2,3-dihydro-1H-inden-1-yl)amino)benzo[b]thiophen-2-yl)-6-(4-fluorophenethyl)-2-isobutyl-5-(5-methyl-1,3,4-oxadiazol-2-yl)nicotinamide] | 1.3 nM
10 | Cc1nnc(-c2c(CCc3ccc(F)cc3)nc(CC(C)C)c(C(N)=O)c2-c2cc3cccc(C#N)c3s2)o1 [Compound 138, 4-(7-cyano-1-benzothiophen-2-yl)-6-[2-(p-fluorophenyl)ethyl]-2-isobutyl-5-(5-methyl-1,3,4-oxadiazol-2-yl)nicotinamide] | 2260 nM
11 | Cc1nnc(-c2c(CCc3ccc(F)cc3)nc(CC(C)C)c(C(N)=O)c2-c2cc3c(N)cccc3s2)o1 [Compound 139, 4-(4-aminobenzo[b]thiophen-2-yl)-6-(4-fluorophenethyl)-2-isobutyl-5-(5-methyl-1,3,4-oxadiazol-2-yl)nicotinamide] | 9930 nM
12 | Cc1nnc(-c2c(CCc3ccc(F)cc3)nc(CC(C)C)c(C(N)=O)c2-c2ccc(CN[C@@H]3CCc4ccccc43)s2)o1 [Compound 140, 4-(5-{[(R)-1-indanylamino]methyl}-2-thienyl)-6-[2-(p-fluorophenyl)ethyl]-2-isobutyl-5-(5-methyl-1,3,4-oxadiazol-2-yl)nicotinamide] | 177 nM
13 | Cc1nnc(-c2c(CCc3ccc(F)cc3)nc(CC(C)C)c(C(N)=O)c2-c2ccc(CNC(=O)c3ccc(F)c(F)c3)s2)o1 [Compound 141] | 50 nM
14 | Cc1nnc(-c2c(CCc3ccc(F)cc3)nc(CC(C)C)c(C(N)=O)c2-c2ccc3c(c2)CCC3NCc2ccc(F)c(F)c2)o1 (centres unmarked) [Compound 143, 4-(1-{[(3,4-difluorophenyl)methyl]amino}-5-indanyl)-6-[2-(p-fluorophenyl)ethyl]-2-isobutyl-5-(5-methyl-1,3,4-oxadiazol-2-yl)nicotinamide] | 374 nM
15 | Cc1nnc(-c2c(CCc3ccc(F)cc3)nc(CC(C)C)c(C(N)=O)c2CCOC(=O)NCc2ccc(F)c(F)c2)o1 [Compound 145] | 6290 nM
16 | Cc1nnc(-c2c(OCc3ccc(F)cc3)nc(CC(C)C)c(C(N)=O)c2-c2ccc(C(=O)NCc3ccc(F)c(F)c3)s2)o1 [Compound 146, 4-[5-[(3,4-difluorophenyl)methylcarbamoyl]-2-thienyl]-6-[(4-fluorophenyl)methoxy]-2-isobutyl-5-(5-methyl-1,3,4-oxadiazol-2-yl)pyridine-3-carboxamide] | 973 nM
17 | CC(C)Cc1nc(CCc2ccc(F)cc2)c(-c2nnc(C(C)C)o2)c(-c2ccc(C(=O)NCc3ccc(F)c(F)c3)s2)c1C(N)=O [Compound 147, N-(3,4-difluorophenyl)methyl-5-{5-carbamoyl-2-[2-(p-fluorophenyl)ethyl]-6-isobutyl-3-(5-isopropyl-1,3,4-oxadiazol-2-yl)-4-pyridyl}-2-thenamide] | 2.3 nM
18 | CC(C)Cc1nc(CCc2ccc(F)cc2)c(-c2nnc(C(F)(F)F)o2)c(-c2ccc(C(=O)NCc3ccc(F)c(F)c3)s2)c1C(N)=O [Compound 148, N-(3,4-difluorophenyl)methyl-5-{5-carbamoyl-2-[2-(p-fluorophenyl)ethyl]-6-isobutyl-3-[5-(trifluoromethyl)-1,3,4-oxadiazol-2-yl]-4-pyridyl}-2-thenamide] | 208 nM
19 | Cc1nnc(-c2c(CCc3ccc(F)cc3)nc(CC(C)C)c(C(N)=O)c2-c2ccc(C(=O)NCc3ccc(F)c(F)c3)s2)s1 [Compound 149, N-(3,4-difluorophenyl)methyl-5-{5-carbamoyl-2-[2-(p-fluorophenyl)ethyl]-6-isobutyl-3-(5-methyl-1,3,4-thiadiazol-2-yl)-4-pyridyl}-2-thenamide] | 19.1 nM
20 | Cc1cnc(-c2c(CCc3ccc(F)cc3)nc(CC(C)C)c(C(N)=O)c2-c2ccc(C(=O)NCc3ccc(F)c(F)c3)s2)o1 [Compound 150, N-(3,4-difluorophenyl)methyl-5-{5-carbamoyl-2-[2-(p-fluorophenyl)ethyl]-6-isobutyl-3-(5-methyl-1,3-oxazol-2-yl)-4-pyridyl}-2-thenamide] | 3.5 nM
21 | Cc1cc(-c2c(CCc3ccc(F)cc3)nc(CC(C)C)c(C(N)=O)c2-c2ccc(C(=O)NCc3ccc(F)c(F)c3)s2)on1 [Compound 151, N-(3,4-difluorophenyl)methyl-5-{5-carbamoyl-2-[2-(p-fluorophenyl)ethyl]-6-isobutyl-3-(3-methyl-5-isoxazolyl)-4-pyridyl}-2-thenamide] | 134 nM
22 | Cc1ncc(-c2c(CCc3ccc(F)cc3)nc(CC(C)C)c(C(N)=O)c2-c2ccc(C(=O)NCc3ccc(F)c(F)c3)s2)o1 [Compound 152, N-(3,4-difluorophenyl)methyl-5-{5-carbamoyl-2-[2-(p-fluorophenyl)ethyl]-6-isobutyl-3-(2-methyl-1,3-oxazol-5-yl)-4-pyridyl}-2-thenamide] | 11.5 nM
23 | Cc1ncoc1-c1c(CCc2ccc(F)cc2)nc(CC(C)C)c(C(N)=O)c1-c1ccc(C(=O)NCc2ccc(F)c(F)c2)s1 [Compound 153, N-(3,4-difluorophenyl)methyl-5-{5-carbamoyl-2-[2-(p-fluorophenyl)ethyl]-6-isobutyl-3-(4-methyl-1,3-oxazol-5-yl)-4-pyridyl}-2-thenamide] | 12 nM
24 | Cc1nc(-c2c(CCc3ccc(F)cc3)nc(CC(C)C)c(C(N)=O)c2-c2ccc(C(=O)NCc3ccc(F)c(F)c3)s2)no1 [Compound 154, N-(3,4-difluorophenyl)methyl-5-{5-carbamoyl-2-[2-(p-fluorophenyl)ethyl]-6-isobutyl-3-(5-methyl-1,2,4-oxadiazol-3-yl)-4-pyridyl}-2-thenamide] | 68.7 nM
25 | Cc1nnc(-c2c(CCc3ccc(F)cc3)nc(CC(C)C)c(S(C)(=O)=O)c2-c2ccc(C(=O)NCc3ccc(F)c(F)c3)s2)o1 [Compound 155] | > 1000 nM
26 | Cc1cc(CNc2nccc3cc(-c4c(C(N)=O)c(CC(C)C)nc(CCc5ccc(F)cc5)c4-c4nnc(C)o4)sc23)ccn1 [Compound 156] | 1200 nM
